Values of other authors as cited in patent US20060216350A1, “Ganglionic blocking agents for the treatment of epithelial diseases” (priority 2005, published 2006).

Test system: hand warts
Settings: patients with hand warts; Sterling et al. 2001

O=C(O)c1ccccc1O [Salicylic acid]
clearance of warts, % of patients: 67%
